Reference: paper PMC6120666 (The EMBO Journal, 2018)

How the values were obtained:
Test in all cases: Drug affinity chromatography with c-ponatinib and LC-MS/MS (ponatinib interactome)
Assay type in all cases: binding
[1] = biological target: T1, proteins of U2OS cell lysate (Homo sapiens, UniProt P24534); conditions: EEF1B2, Elongation factor 1-beta
T1 construct: Proteins enriched by c-ponatinib from U2OS cell lysate; endogenous in cells; host or cells: U2OS cell lysate
Procedure, shortened: (§1)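 Proteins were identified by nano-UPLC–MS/MS after elution with formic acid and trypsin digestion. They were captured from U2OS lysate (2 mg protein per pulldown, NP-40 buffer) on amine-coupled NHS beads during a 2 h incubation at 4 °C.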

[2] = biological target: T2, proteins of U2OS cell lysate (Homo sapiens, UniProt Q8TEX9); conditions: IPO4, Importin-4
T2 construct: Proteins enriched by c-ponatinib from U2OS cell lysate; endogenous in cells; host or cells: U2OS cell lysate
Procedure, shortened: as §1

[3] = biological target: T3, proteins of U2OS cell lysate (Homo sapiens, UniProt O00303); conditions: EIF3F, Eukaryotic translation initiation factor 3 subunit F
T3 construct: Proteins enriched by c-ponatinib from U2OS cell lysate; endogenous in cells; host or cells: U2OS cell lysate
Procedure, shortened: as §1

[4] = biological target: T4, proteins of U2OS cell lysate (Homo sapiens, UniProt P43487); conditions: RANBP1, Ran-specific GTPase-activating protein
T4 construct: Proteins enriched by c-ponatinib from U2OS cell lysate; endogenous in cells; host or cells: U2OS cell lysate
Procedure, shortened: as §1

[5] = biological target: T5, proteins of U2OS cell lysate (Homo sapiens, UniProt P63104); conditions: YWHAZ, 14-3-3 protein zeta/delta
T5 construct: Proteins enriched by c-ponatinib from U2OS cell lysate; endogenous in cells; host or cells: U2OS cell lysate
Procedure, shortened: as §1

[6] = biological target: T6, proteins of U2OS cell lysate (Homo sapiens, UniProt P08670); conditions: VIM, Vimentin
T6 construct: Proteins enriched by c-ponatinib from U2OS cell lysate; endogenous in cells; host or cells: U2OS cell lysate
Procedure, shortened: as §1

[7] = biological target: T7, proteins of U2OS cell lysate (Homo sapiens, UniProt P10809); conditions: HSPD1, 60 kDa heat shock protein, mitochondrial
T7 construct: Proteins enriched by c-ponatinib from U2OS cell lysate; endogenous in cells; host or cells: U2OS cell lysate
Procedure, shortened: as §1

[8] = biological target: T8, proteins of U2OS cell lysate (Homo sapiens, UniProt Q9P0K7); conditions: RAI14, Ankycorbin
T8 construct: Proteins enriched by c-ponatinib from U2OS cell lysate; endogenous in cells; host or cells: U2OS cell lysate
Procedure, shortened: as §1

[9] = biological target: T9, proteins of U2OS cell lysate (Homo sapiens, UniProt Q16531); conditions: DDB1, DNA damage-binding protein 1
T9 construct: Proteins enriched by c-ponatinib from U2OS cell lysate; endogenous in cells; host or cells: U2OS cell lysate
Procedure, shortened: as §1

[10] = biological target: T10, proteins of U2OS cell lysate (Homo sapiens, UniProt Q15149); conditions: PLEC, Plectin
T10 construct: Proteins enriched by c-ponatinib from U2OS cell lysate; endogenous in cells; host or cells: U2OS cell lysate
Procedure, shortened: as §1

[11] = biological target: T11, proteins of U2OS cell lysate (Homo sapiens, UniProt P27708); conditions: CAD, CAD protein
T11 construct: Proteins enriched by c-ponatinib from U2OS cell lysate; endogenous in cells; host or cells: U2OS cell lysate
Procedure, shortened: as §1

[12] = biological target: T12, proteins of U2OS cell lysate (Homo sapiens, UniProt Q8N3V7); conditions: SYNPO, Synaptopodin
T12 construct: Proteins enriched by c-ponatinib from U2OS cell lysate; endogenous in cells; host or cells: U2OS cell lysate
Procedure, shortened: as §1

[13] = biological target: T13, proteins of U2OS cell lysate (Homo sapiens, UniProt P49792); conditions: RANBP2, E3 SUMO-protein ligase RanBP2
T13 construct: Proteins enriched by c-ponatinib from U2OS cell lysate; endogenous in cells; host or cells: U2OS cell lysate
Procedure, shortened: as §1

[14] = biological target: T14, proteins of U2OS cell lysate (Homo sapiens, UniProt P55060); conditions: CSE1L, Exportin-2
T14 construct: Proteins enriched by c-ponatinib from U2OS cell lysate; endogenous in cells; host or cells: U2OS cell lysate
Procedure, shortened: as §1

[15] = biological target: T15, proteins of U2OS cell lysate (Homo sapiens, UniProt O95232); conditions: LUC7L3, Luc7-like protein 3
T15 construct: Proteins enriched by c-ponatinib from U2OS cell lysate; endogenous in cells; host or cells: U2OS cell lysate
Procedure, shortened: as §1

[16] = biological target: T16, proteins of U2OS cell lysate (Homo sapiens, UniProt P09496); conditions: CLTA, Clathrin light chain A
T16 construct: Proteins enriched by c-ponatinib from U2OS cell lysate; endogenous in cells; host or cells: U2OS cell lysate
Procedure, shortened: as §1

[17] = biological target: T17, proteins of U2OS cell lysate (Homo sapiens, UniProt P31946); conditions: YWHAB, 14-3-3 protein beta/alpha
T17 construct: Proteins enriched by c-ponatinib from U2OS cell lysate; endogenous in cells; host or cells: U2OS cell lysate
Procedure, shortened: as §1

[18] = biological target: T18, proteins of U2OS cell lysate (Homo sapiens, UniProt P46060); conditions: RANGAP1, Ran GTPase-activating protein 1
T18 construct: Proteins enriched by c-ponatinib from U2OS cell lysate; endogenous in cells; host or cells: U2OS cell lysate
Procedure, shortened: as §1

[19] = biological target: T19, proteins of U2OS cell lysate (Homo sapiens, UniProt P23246); conditions: SFPQ, Splicing factor, proline- and glutamine-rich
T19 construct: Proteins enriched by c-ponatinib from U2OS cell lysate; endogenous in cells; host or cells: U2OS cell lysate
Procedure, shortened: as §1

T17 sequence (P31946 whole entry): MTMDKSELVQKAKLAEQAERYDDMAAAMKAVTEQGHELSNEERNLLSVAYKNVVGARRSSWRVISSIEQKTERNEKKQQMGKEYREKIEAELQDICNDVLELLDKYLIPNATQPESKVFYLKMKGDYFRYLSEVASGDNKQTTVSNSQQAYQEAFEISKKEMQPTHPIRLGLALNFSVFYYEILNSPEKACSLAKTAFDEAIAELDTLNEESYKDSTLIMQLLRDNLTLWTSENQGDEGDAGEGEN
T16 sequence (P09496 whole entry): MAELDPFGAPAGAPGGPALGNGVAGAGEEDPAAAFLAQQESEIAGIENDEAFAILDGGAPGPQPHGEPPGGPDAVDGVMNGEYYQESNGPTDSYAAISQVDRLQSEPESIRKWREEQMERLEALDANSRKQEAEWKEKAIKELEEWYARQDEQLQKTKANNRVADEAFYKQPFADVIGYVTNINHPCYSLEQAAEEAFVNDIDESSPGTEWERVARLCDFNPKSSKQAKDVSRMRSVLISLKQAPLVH
T4 sequence (P43487 whole entry): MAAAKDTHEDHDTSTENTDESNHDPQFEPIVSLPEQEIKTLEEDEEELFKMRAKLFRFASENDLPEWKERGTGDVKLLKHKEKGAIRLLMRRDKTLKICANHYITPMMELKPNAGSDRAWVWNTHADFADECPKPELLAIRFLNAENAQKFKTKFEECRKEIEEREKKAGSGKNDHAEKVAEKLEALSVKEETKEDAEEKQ
T7 sequence (P10809 27-573): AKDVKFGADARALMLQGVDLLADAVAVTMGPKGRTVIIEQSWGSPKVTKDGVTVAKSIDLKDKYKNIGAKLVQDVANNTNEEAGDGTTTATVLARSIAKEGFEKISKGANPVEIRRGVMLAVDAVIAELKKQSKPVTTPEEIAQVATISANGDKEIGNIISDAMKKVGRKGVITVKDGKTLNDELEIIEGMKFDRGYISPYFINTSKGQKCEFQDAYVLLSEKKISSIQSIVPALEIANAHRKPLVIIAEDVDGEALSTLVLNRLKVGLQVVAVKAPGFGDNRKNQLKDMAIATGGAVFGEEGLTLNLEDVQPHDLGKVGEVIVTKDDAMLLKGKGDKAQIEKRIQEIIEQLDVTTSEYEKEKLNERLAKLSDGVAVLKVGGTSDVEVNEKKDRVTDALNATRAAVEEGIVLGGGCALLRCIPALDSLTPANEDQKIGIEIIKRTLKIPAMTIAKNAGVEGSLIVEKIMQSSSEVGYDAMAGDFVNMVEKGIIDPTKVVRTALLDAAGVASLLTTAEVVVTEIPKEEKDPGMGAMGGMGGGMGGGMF
T11 sequence (P27708 whole entry): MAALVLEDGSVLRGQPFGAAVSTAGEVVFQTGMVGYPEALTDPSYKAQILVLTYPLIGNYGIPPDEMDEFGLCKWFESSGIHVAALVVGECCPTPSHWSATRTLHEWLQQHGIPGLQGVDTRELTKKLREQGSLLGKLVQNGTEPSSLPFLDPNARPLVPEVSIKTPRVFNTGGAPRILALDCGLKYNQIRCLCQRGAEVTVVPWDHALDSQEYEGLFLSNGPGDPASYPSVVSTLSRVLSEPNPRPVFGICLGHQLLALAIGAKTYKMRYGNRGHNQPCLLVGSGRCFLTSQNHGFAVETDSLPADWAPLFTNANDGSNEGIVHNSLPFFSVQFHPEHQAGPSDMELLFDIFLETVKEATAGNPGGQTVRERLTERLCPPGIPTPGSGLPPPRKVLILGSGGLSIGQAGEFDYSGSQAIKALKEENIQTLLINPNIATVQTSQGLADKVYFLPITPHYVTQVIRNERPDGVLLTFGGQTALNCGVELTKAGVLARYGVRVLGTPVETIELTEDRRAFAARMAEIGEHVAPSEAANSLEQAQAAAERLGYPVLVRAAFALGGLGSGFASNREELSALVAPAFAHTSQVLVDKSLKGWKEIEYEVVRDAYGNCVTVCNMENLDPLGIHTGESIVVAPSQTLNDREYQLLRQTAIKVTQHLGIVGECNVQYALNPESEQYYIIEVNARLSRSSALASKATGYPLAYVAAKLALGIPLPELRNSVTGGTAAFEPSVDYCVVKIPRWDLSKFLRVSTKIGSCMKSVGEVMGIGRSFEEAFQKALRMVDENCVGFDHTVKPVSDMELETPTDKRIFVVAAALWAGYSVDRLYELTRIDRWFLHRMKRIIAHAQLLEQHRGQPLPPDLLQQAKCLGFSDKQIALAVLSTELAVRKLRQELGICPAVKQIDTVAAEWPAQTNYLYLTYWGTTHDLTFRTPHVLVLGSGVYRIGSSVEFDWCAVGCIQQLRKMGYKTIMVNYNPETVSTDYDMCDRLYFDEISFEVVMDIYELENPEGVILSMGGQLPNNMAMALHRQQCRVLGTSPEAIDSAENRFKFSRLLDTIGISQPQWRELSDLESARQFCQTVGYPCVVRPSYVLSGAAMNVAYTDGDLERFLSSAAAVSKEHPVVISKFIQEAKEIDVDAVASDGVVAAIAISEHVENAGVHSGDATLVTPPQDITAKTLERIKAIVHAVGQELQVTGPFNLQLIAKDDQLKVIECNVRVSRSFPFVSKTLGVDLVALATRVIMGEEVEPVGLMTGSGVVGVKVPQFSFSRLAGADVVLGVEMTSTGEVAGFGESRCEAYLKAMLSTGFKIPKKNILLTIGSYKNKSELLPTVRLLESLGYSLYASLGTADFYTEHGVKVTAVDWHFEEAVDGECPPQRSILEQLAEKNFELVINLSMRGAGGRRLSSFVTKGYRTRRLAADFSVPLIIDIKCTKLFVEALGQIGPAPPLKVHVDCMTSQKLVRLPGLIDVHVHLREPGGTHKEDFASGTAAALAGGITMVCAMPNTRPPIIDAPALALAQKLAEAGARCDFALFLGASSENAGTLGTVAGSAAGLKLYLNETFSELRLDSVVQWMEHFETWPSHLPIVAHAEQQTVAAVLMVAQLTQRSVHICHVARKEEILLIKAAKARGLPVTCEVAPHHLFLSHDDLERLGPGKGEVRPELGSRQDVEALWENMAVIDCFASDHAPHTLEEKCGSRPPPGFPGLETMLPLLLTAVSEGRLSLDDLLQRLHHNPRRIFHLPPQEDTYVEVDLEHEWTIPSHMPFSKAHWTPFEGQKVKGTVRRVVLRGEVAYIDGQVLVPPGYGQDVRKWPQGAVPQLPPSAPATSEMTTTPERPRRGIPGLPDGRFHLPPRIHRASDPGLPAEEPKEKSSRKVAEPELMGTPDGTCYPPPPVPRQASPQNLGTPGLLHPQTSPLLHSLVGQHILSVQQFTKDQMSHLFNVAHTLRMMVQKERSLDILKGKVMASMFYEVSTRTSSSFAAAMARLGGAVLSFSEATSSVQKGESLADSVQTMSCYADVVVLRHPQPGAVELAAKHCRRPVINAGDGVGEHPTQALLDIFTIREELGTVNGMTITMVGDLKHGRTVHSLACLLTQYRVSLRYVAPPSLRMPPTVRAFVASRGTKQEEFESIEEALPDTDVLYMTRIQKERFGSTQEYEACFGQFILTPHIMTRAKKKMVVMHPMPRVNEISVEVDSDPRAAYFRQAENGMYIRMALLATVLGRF
T1 sequence (P24534 whole entry): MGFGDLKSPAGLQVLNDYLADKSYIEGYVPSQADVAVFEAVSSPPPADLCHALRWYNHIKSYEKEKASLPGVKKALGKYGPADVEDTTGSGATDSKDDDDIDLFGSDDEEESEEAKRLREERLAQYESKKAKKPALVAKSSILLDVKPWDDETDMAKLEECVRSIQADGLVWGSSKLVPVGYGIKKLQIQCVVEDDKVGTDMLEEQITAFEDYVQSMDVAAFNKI
T19 sequence (P23246 whole entry): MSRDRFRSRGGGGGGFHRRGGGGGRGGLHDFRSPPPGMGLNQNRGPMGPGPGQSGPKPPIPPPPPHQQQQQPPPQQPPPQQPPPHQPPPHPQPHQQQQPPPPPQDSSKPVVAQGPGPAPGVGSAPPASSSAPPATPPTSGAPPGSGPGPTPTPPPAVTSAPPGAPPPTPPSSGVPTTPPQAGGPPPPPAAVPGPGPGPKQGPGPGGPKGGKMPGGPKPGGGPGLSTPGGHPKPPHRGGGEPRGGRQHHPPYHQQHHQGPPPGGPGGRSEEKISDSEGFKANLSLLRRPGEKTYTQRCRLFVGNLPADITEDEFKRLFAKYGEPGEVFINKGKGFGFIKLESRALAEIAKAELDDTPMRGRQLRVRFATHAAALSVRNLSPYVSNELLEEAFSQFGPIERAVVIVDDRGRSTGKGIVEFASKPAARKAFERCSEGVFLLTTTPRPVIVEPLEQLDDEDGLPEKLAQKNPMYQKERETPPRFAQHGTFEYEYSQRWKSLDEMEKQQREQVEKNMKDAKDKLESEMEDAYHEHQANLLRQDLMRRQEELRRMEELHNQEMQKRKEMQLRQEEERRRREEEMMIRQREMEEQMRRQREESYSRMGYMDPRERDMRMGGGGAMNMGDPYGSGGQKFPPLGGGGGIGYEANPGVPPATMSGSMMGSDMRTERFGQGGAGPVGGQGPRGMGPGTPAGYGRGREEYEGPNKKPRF
T15 sequence (O95232 whole entry): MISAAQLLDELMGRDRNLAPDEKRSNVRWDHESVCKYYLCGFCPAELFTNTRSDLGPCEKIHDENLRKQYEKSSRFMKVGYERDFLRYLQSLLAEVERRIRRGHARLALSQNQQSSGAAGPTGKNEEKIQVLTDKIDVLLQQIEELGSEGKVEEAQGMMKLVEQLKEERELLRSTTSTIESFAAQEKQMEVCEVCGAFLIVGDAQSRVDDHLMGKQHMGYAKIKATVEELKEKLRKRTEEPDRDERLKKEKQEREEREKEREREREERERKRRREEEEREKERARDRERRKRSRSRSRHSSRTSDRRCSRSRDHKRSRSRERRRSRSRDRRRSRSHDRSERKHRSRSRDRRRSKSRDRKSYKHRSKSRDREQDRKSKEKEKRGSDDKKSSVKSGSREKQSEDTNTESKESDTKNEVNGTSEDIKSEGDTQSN

In the case of Cc1ccc(C(=O)Nc2ccc(CN3CCN(C)CC3)c(C(F)(F)F)c2)cc1C#Cc1cnc2cccnn12 [PON], the “Average LFQ PON_WT” value [1] is reported as 23.7043, the “Average LFQ PON_WT” value [2] is reported as 20.7176 and the “Average LFQ PON_WT” value [3] is reported as 23.4858. For the same molecule, the “Average LFQ PON_WT” value [4] was 20.4588, the “Average LFQ PON_WT” value [5] was 24.9214 and the “Average LFQ PON_WT” value [6] was 26.7986. For the same molecule, the “Average LFQ PON_WT” value [7] was 21.1431, the “Average LFQ PON_WT” value [8] was 19.7116 and the “Average LFQ PON_WT” value [9] was 20.7257. The “Average LFQ PON_WT” value [10] was 27.1637, the “Average LFQ PON_WT” value [11] was 21.3466 and the “Average LFQ PON_WT” value [12] was 23.2218. For the same molecule, the “Average LFQ PON_WT” value [13] was 18.8692, the “Average LFQ PON_WT” value [14] was 25.3839 and the “Average LFQ PON_WT” value [15] was 20.3652. For the same molecule, the “Average LFQ PON_WT” value [16] was 24.9334, the “Average LFQ PON_WT” value [17] was 23.524 and the “Average LFQ PON_WT” value [18] was 21.315. The “Average LFQ PON_WT” value [19] was 20.8702.
